This note sets out measurements from patent publication US7060277B2 (priority 1996, dated 2006).

This assay has as its system lethal dose of SEB in D-galactosamine-treated mouse model. The arrangement: species or system BALB/c mice. As to conditions: in vivo.

“And” between values parts separate entries of the source, which are not always exact repeats. Equal entries are not always repeated.

As to “lcT N K K K V T A Q E L D [pSEBLC(150–161)]”, the “Percent Survival” value is 29% and 22%.
